Entries after “also recorded” stand apart in the source; their conditions may differ.
How the values were obtained:
[1] = system: primary rat cortical neurons; details: comparable to that evoked by BDNF; cited from earlier work
[2] = system: Patients with mild-to-moderate Alzheimer's disease; details: cited from earlier work
[3] = system: primary postnatal (P0) cortical cells; assay: Neurite Outgrowth Assay (neuroprotection against Aβ1-42-induced reduction of neurite outgrowth); assay type: cell-based, rat; details: for % Attenuation Effect of 5 μM Aβ 1-42: 5 μM Aβ1-42, 3 days, compound pretreatment about 5 hours; for Emax at 3 µM / Emax at 0.3 µM: Rattus norvegicus, relative to 300 nM dimebolin, read-out: Maximum Effect (of % 300 nM Dimebolin) at Concentration; for Emax at 3 µM: maximum response at 3000 nM test compound; for Emax at 0.3 µM: maximum response at 300 nM test compound
Experimental: In addition to PC12 cells, other cellular model systems may also be used. Rat cortical cells can be cultured and prepared for high content microscopy analysis as previously described (Hu, M.; Schurdak, M. E.; et al. High content screen microscopy analysis of Aβ1-42-induced neurite outgrowth reduction in rat primary cortical neurons: Neuroprotective effects of α7 neuronal nicotinic acetylcholine receptor ligands. Brain Res. 2007, 1151, 227-235.). Briefly, cortical cell cultures are plated at density of 5×10^5 cells/mL onto poly-D-lysine coated 96-well plates and maintained in a cell incubator at 37° C. with 5% CO2. Experiments are performed using 6-7 day-old cortical cell cultures by treating with test compounds. In some experiments, the effect of test compounds on reversing Aβ toxicity can also be measured (Hu, M.; Schurdak, M. E.; et al. High content screen microscopy analysis of Aβ1-42-induced neurite outgrowth reduction in rat primary cortical neurons: Neuroprotective effects of α7 neuronal nicotinic acetylcholine receptor ligands. Brain Res. 2007, 1151, 227-235.). For assessment of neuroprotective effects, cells are first pretreated with test compounds for about 5 hours. Medium is then replaced with the medium containing freshly prepared about 5 μM Aβ1-42 peptide in the absence or presence of the test compounds for 3 days. The untreated group contains the same percentage of vehicle (DMSO) as in the treatment groups. Cells are fixed with approximately 4% paraformaldehyde containing 0.5% Hoechst 33342 for about 15 minutes, followed by three washes using PBS (pH 7.4) and blocked with 10% donkey serum in PBS for 1 hour at room temperature. The cells are then incubated overnight at about 4° C. with mouse anti-tubulin monoclonal antibody (1:100) for staining neurons and rabbit anti-GFAP (1:1000) for staining glia. In the next day, cells are incubated with FITC-labeled anti-mouse and TRITC-labeled anti-rabbit antibodies (1:1000) for about 1 hour at room temperature. After fixing and staining the cells, nuclei (360/400 nm excitation and 465/300 nm emission filters), neuron (475/350 nm excitation and 535/400 nm emission filters) and glial cell (535 nm excitation and 610 nm emission filters) images are collected using the ImageExpress Micro automatic fluorescent microscopy system (Molecular Devices, Sunnyvale, Calif.) employing a Nikon 10× Plan Fluor objective and Cool Snap HQ CCD camera. The Neurite Outgrowth module in the MetaMorph Imaging software can be used to automatically count total cell number, number of neuron cells, and the extent of neurite outgrowth.
The neurite outgrowth observed for untreated cells is set to 100% response. Treatment of cells with compounds prior to and concomitantly with Aβ1-42 gave a neuroprotective effect with neurite outgrowth maintained or enhanced relative to untreated cells.

[4] = system: mice; assay: Inhibitory Avoidance in Mouse (24-hour recall); assay type: in vivo; details: 24 hours after initial exposure, 0.001, 0.01, 0.1, and 1.0 mg/kg i.p., versus control
Experimental: Inhibitory Avoidance in Mouse: The inhibitory avoidance task involves the uses of a two-compartment step through apparatus (Ugo Basile, Collegeville, Pa.) that measures the animal's ability to remember a brief noxious stimulus (foot shock), and is considered a measure of trial learning, and memory consolidation. Briefly, 30 minutes after dosing, mice were placed in a lighted compartment of the apparatus where the latency to enter into the preferred dark compartment is recorded. Entry into a dark compartment results in the immediate delivery of a mild foot shock (0.2 mA, 1-second duration). Retention testing is conducted 24 hours later with the animal again placed in the lighted compartment where its latency to reenter the dark side of the apparatus is measured (no shock). Increasing retention latency is regarded as an index of memory consolidation (Bitner, R. S.; Bunnelle, W. H.; et al. Broad-spectrum efficacy across cognitive domains by α7 nicotinic acetylcholine receptor agonism correlates with activation of ERK1/2 and CREB phosphorylation pathways. J. Neurosci. 2007, 27 (39), 10578-10587.). […] (*p<0.05; **p<0.01, ***p<0.001 versus control)

[5] = system: SK-N-SH human neuroblastoma cells; assay: Serum Deprivation/JC-1 Mitochondrial Membrane Potential (MMP) Assay; assay type: cell-based; details: Homo sapiens, SK-N-SH; for Emax: percent maximal JC-1 ratio normalized to peak value for 10 μM dimebolin, read-out: JC-1 max %; for EC50: serum deprivation ~18 hours, JC-1 ratio normalized to peak value for 10 μM dimebolin
Experimental: Tissue Culture: SK-N-SH human neuroblastoma cells obtained from American Type Culture Collection (Rockville, Md.) were maintained in the log phase of growth in Minimal Essential Media (MEM), 10% heat inactivated fetal calf serum and 100 units/mL antibiotic-antimycotic (AA). Cells were cultured and maintained in a humidified incubator at 37° C. under 5% CO2 and 95% air. Cells were trypsinized (0.25%) and subcultured every 3 days and used from 15-18 passages. All cell culture supplies were obtained from Invitrogen (Carlsbad, Calif.).
Serum Deprivation/JC-1 Mitochondrial Membrane Potential (MMP) Assay.
SK-N-SH cells were plated 2-3 days in advance at a concentration of 50,000 cells/well onto collagen coated black-walled 96 well plates (Becton-Dickinson, Bedford, Mass.) in a total volume of 200 μL. On day of experimental treatment, the media containing serum was aspirated from each well and rinsed once with MEM/1% AA without serum. The cells then were incubated overnight in 100 μL of MEM/1% AA (no serum) with and without dimebolin or novel chemical entities overnight for ˜18 hours. The following day, JC-1 dye (5,5′,6,6′-tetrachloro-1,1′,3,3′-tetraethylbenzimidazolcarbocyanide) was diluted 1:10 into MEM media according to the JC-1 Mitochondrial Membrane Potential Assay Kit: (Cayman Chemical Company, Ann Arbor, Mich.) and then 10 μL of the JC-1 dye solution was added to each well. The plates were centrifuged for 5 minutes at 400×g at room temperature followed by 40 minute incubation at 37° C. The plates were washed twice with 200 μL of provided Assay Buffer followed an addition of 100 μL of Assay Buffer to each well. The plates were read with an excitation and emission of 560 nm and 595 nM for red fluorescence and with an excitation and emission of […] and 535 nM for green fluorescence to determine the final JC-1 value taking the red to green fluorescence ratio. This assay is based on change in mitochondrial membrane potential (MMP) using this lipophilic cationic dye, JC-1, by monitoring the changes in the ratio of red to green fluorescence as the MMP depolarizes. This change in MMP reflects the health of the cell with healthy, viable cells have a high JC-1 ratio and high MMP whereas apoptotic, unhealthy cells have a low JC-1 ratio or low MMP.
For the ability of compounds to reverse the stress due to serum deprivation and increase the JC-1 ratio, the percent maximal intensity in JC-1 ratio was normalized to that induced by the peak value for 10 μM dimebolin and plotted against the compound concentration to calculate EC50 values and to control for plate-to-plate variability. Concentration-response data were analyzed using GraphPad Prism (San Diego, Calif.); the EC50 values were derived from a single curve fit to the mean data of n=2-3, in duplicates.
All compounds were dissolved in dimethyl sulfoxide at 10 mM stock solutions and tested at a concentration that the dimethyl sulfoxide levels never exceeded 1%.

Compound	% Attenuation Effect of 5 μM Aβ 1-42 [3]	Emax [5]	EC50 [5]	also measured
Cc1ccc2c(c1)c1c(n2CCc2ccc(C)nc2)CCN(C)C1 [dimebolin, 2,3,4,5-tetrahydro-2,8-dimethyl-5-[2-(6-methyl-3-pyridinyl)ethyl]-1H-pyrido[4,3-b]indole]	–	–	–	neurite outgrowth [1]: increase neurite outgrowth; clinical course of disease, improvement over baseline for ADAS-Cog ([2]; 20 mg three times a day (60 mg/day)): significant improvement; most frequent adverse event ([2]; recently reported clinical studies): dry mouth
Cc1ccc(C#Cc2cccc3c4c([nH]c23)C2CCN(CC2)C4)cn1 [Example 3, 7-[(6-methylpyridin-3-yl)ethynyl]-3,4,5,6-tetrahydro-1H-2,5-ethanoazepino[4,3-b]indole]	43%	188%	4.36 µM	Emax at 3 µM [3]: 115%; latency to reenter the dark side (punishment side) [4]: significantly increased; also recorded: concentration-dependent improvement
c1cnc2ccc(-c3cccc4c5c([nH]c34)C3CCN(CC3)C5)cc2c1 [Example 27, 7-quinolin-6-yl-3,4,5,6-tetrahydro-1H-2,5-ethanoazepino[4,3-b]indole]	38%	133%	6.39 µM	Emax at 0.3 µM [3]: 109%
C(=C\c1cccc2c3c([nH]c12)C1CCN(CC1)C3)/c1cccnc1 [Example 34, 7-[(E)-2-pyridin-3-ylvinyl]-3,4,5,6-tetrahydro-1H-2,5-ethanoazepino[4,3-b]indole]	–	109%	6.3 µM	–
C(=C\c1cccc2c3c([nH]c12)C1CCN(CC1)C3)/c1ccccn1 [Example 12, 7-[(E)-2-pyridin-2-ylvinyl]-3,4,5,6-tetrahydro-1H-2,5-ethanoazepino[4,3-b]indole]	–	192%	3.56 µM	–
Fc1cccc(CCc2cccc3c4c([nH]c23)C2CCN(CC2)C4)c1 [Example 16, 7-[2-(3-fluorophenyl)ethyl]-3,4,5,6-tetrahydro-1H-2,5-ethanoazepino[4,3-b]indole]	–	49%	> 30 µM	–
c1cc(-c2cncnc2)c2[nH]c3c(c2c1)CN1CCC3CC1 [Example 38, 7-(pyrimidin-5-yl)-3,4,5,6-tetrahydro-1H-2,5-ethanoazepino[4,3-b]indole]	–	76%	10.5 µM	–
C(=C\c1cccc2c3c([nH]c12)C1CCN(CC1)C3)/c1ccsc1 [Example 6, 7-[(E)-2-thien-3-ylvinyl]-3,4,5,6-tetrahydro-1H-2,5-ethanoazepino[4,3-b]indole]	–	67%	6.62 µM	–
Cc1ccc(/C=C/c2cccc3c4c([nH]c23)C2CCN(CC2)C4)cn1 [Example 1, 7-[(E)-2-(6-methylpyridin-3-yl)vinyl]-3,4,5,6-tetrahydro-1H-2,5-ethanoazepino[4,3-b]indole]	34%	139%	6.02 µM	Emax at 3 µM [3]: 106%; latency to reenter the dark side (punishment side) [4]: significantly increased; also recorded: concentration-dependent improvement
Cc1ccc(/C=C/c2ccc3[nH]c4c(c3c2)CN2CCC4CC2)cn1 [Example 8, 9-[(E)-2-(6-methylpyridin-3-yl)vinyl]-3,4,5,6-tetrahydro-1H-2,5-ethanoazepino[4,3-b]indole]	49%	162%	4.05 µM	Emax at 0.3 µM [3]: 121%
Cc1ccc(CCc2ccc3[nH]c4c(c3c2)CN2CCC4CC2)cn1 [Example 9, 9-[2-(6-methylpyridin-3-yl)ethyl]-3,4,5,6-tetrahydro-1H-2,5-ethanoazepino[4,3-b]indole]	–	110%	3.94 µM	–
